From patent US7173004B2, “Macrocyclic isoquinoline peptide inhibitors of hepatitis C virus” (Bristol-Myers Squibb Company, priority 2003, dated 2007)
“Also recorded” adds a separate entry of the source. Read-outs that look alike come from different tables or passages of the source.

Tests used:
[1] = test system: HCV replicon (HCV 1b-377-neo replicon cells, Huh7); test: HCV replicon cell-based FRET assay; conditions: Hepatitis C virus, Huh-7
In short: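 Huh7 cells carrying a neo-selectable genotype 1b HCV replicon (~3,000 RNA copies/cell) were seeded at 1.5×10^4 cells/well and treated 4 days at 37 °C (0.5% DMSO final). CC50 was read by alamar Blue (4 h, ex 530/em 580 nm). Lysates with 10 μM EDANS/DABCYL NS3 protease FRET peptide were read kinetically (ex 340/em 490 nm, 25 °C, ~15 min) for % inhibition.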

HCV replicon = test: Three-drug combination studies in HCV replicon system, combination index; format: cell-based
Experimental: […] an NS5B replicase inhibitor (compound 2006; WO 03/010141), were tested in 2-drug combinations with the macrocyclic HCV NS3 protease inhibitor compound 28. In addition, compound 28 was also tested in 3-drug combinations with the NS5A and NS5B inhibitors.
For the experiments shown in Tables 8 and 9, inhibitors were tested at eleven concentrations each. 200× stock solutions of each inhibitor concentration were prepared by 2- or 3-fold dilution in DMSO prior to addition to cells/media. The drugs were tested as monotherapies and in combination with the NS3 protease inhibitor at various concentration ratios. Cells were exposed to compounds for 4 days and the amount of HCV inhibition was then determined using the FRET assay. The potential cytotoxicities of these combined agents were also analyzed in parallel by Alamar Blue staining. […] The degree of antagonism, additivity, or synergy was determined over a range of drug concentrations, and combination response curves were fit to assess the antiviral effects of the drug treatment combinations. The concentration ratios were analyzed using the method of Chou (Chou, Ting-Chao, and Rideout (Editors), (1991) Synergism and Antagonism in Chemotherapy, P. 61–101, Academic Press, New York). Tables 8 and 9 report the estimated EC50 values for the compounds tested, as well as the combination indices (CI). All estimates were computed using SAS Proc NLIN, and a two-parameter logistic. All combination indices were tested for departure from additivity using isobologram methods. Asymptotic confidence intervals were also calculated for each of the combination indices. These intervals are used to test for departure from additivity by comparing the bounds to one—a lower bound of the interval greater than 1 indicates antagonism, an upper bound of less than 1 indicates synergism, and a value of 1 contained in the interval indicates additivity.
Compound 28 was also tested in 3-drug combination experiments with the NS5A inhibitor and the NS5B inhibitor (Table 12). The starting concentrations for the mono-therapies consisted of a 0.667 μM solution of the NS5A inhibitor, a 0.3 μM solution of compound 28, and a 2.5 μM solution of the NS5B inhibitor. The starting concentration for the triple combination contained a mixture of ⅓ of each of the above concentrations. Dose response curves for all three mono-therapies and the triple combination therapy were obtained using 3-fold dilutions, and data analysis was carried out as described above for combination index experiments.

Row | Compound | EC50 [1] [nM] | other results
1 | COc1ccc2c(OC3CC4C(=O)NC5(C(=O)NS(=O)(=O)C6CC6)CC5C=CCOCCCC(NC(=O)OC(C)(C)C)C(=O)N4C3)nccc2c1 (stereo not drawn) [Compound 28, [4-Cyclopropanesulfonylaminocarbonyl-18-(6-methoxy-isoquinolin-1-yloxy)-2,15-dioxo-10-oxa-3,16-diaza-tricyclo[14.3.0.0^4,6]nonadec-7-en-14-yl]-carbamic acid tert-butyl ester] | < 50 | combination effect, 3-drug combination with the NS5A inhibitor and the NS5B inhibitor (HCV replicon; 75, 90 and 95% effective doses): Synergistic effects; also recorded: No drug antagonism; EC50 (HCV replicon; Hepatitis C virus, mono-therapy in the three-drug combination experiment, HCV replicon, NS3 Pr inhibitor is compound 28, read-out: NS3 Pr inhibitor EC50): 8 nM
2 | COc1ccc2c(OC3C[C@H]4C(=O)N[C@]5(C(=O)NS(=O)(=O)C6CC6)C[C@H]5/C=C\CCCSC[C@H](NC(=O)OC(C)(C)C)C(=O)N4C3)nccc2c1 (stereo partly drawn) [Compound 18B, [4-Cyclopropanesulfonylaminocarbonyl-18-(6-methoxy-isoquinolin-1-yloxy)-2,15-dioxo-12-thia-3,16-diaza-tricyclo[14.3.0.0^4,6]nonadec-7-en-14-yl]-carbamic acid tert-butyl ester] | < 50 | 
3 | COc1ccc2c(O[C@@H]3C[C@H]4C(=O)N[C@]5(C(=O)O)C[C@H]5/C=C\CCCO[C@H](C)[C@H](NC(=O)OC(C)(C)C)C(=O)N4C3)nccc2c1 [Compound 61] | 5000 to 50000 | 
4 | COc1ccc2c(OC3CC4C(=O)NC5(C(=O)NS(=O)(=O)C6(C)CC6)CC5C=CCCCSCC(NC(=O)NC5CCCC5)C(=O)N4C3)nccc2c1 (stereo not drawn) [Compound 43] | < 50 | 
5 | CC(C)(C)OC(=O)N[C@H]1CCCCC/C=C\[C@@H]2C[C@@]2(C(=O)NS(=O)(=O)C2(C)CC2)NC(=O)[C@@H]2C[C@@H](Oc3nccc4ccccc34)CN2C1=O [Compound 8, [18-(Isoquinolin-1-yloxy)-4-(1-methyl-cyclopropanesulfonylaminocarbonyl)-2,15-dioxo-3,16-diaza-tricyclo[14.3.0.0^4,6]nonadec-7-en-14-yl]-carbamic acid tert-butyl ester] | < 50 | 
6 | COc1ccc2c(O[C@@H]3C[C@H]4C(=O)N[C@]5(C(=O)NS(=O)(=O)C6CC6)C[C@H]5/C=C\CCCS(=O)(=O)C[C@H](NC(=O)OC(C)(C)C)C(=O)N4C3)nccc2c1 [Compound 19] | 50 to 500 | 
7 | CCC1(S(=O)(=O)NC(=O)C23CC2C=CCCCSCC(NC(=O)OC(C)C)C(=O)N2CC(Oc4nccc5cc(OC)ccc45)CC2C(=O)N3)CC1 (stereo not drawn) [Compound 44] | < 50 | 
8 | CC(C)(C)OC(=O)N[C@H]1CCCCC/C=C\[C@@H]2C[C@@]2(C(=O)NS(C)(=O)=O)NC(=O)[C@@H]2C[C@@H](Oc3nccc4ccccc34)CN2C1=O [Compound 2, [18-(Isoquinolin-1-yloxy)-4-methanesulfonylaminocarbonyl-2,15-dioxo-3,16-diaza-tricyclo[14.3.0.0^4,6]nonadec-7-en-14-yl]-carbamic acid tert-butyl ester] | 50 to 500 | EC50 ([1]; read-out: EC50 value in the replicon assay): 146 nM
9 | CCC1(S(=O)(=O)NC(=O)C23CC2C=CCCCSCC(NC(=O)NC2CCCC2)C(=O)N2CC(Oc4nccc5cc(OC)ccc45)CC2C(=O)N3)CC1 (stereo not drawn) [Compound 46] | < 50 | 
10 | COc1ccc2c(OC3CC4C(=O)NC5(C(=O)NS(=O)(=O)C6CC6)CC5C=CCCCOC(C)C(NC(=O)OC(C)(C)C)C(=O)N4C3)nccc2c1 (stereo not drawn) [Compound 62] | 50 to 500 | 
11 | O=C(CC1CC1)NC1CCCCCC=CC2CC2(C(=O)NS(=O)(=O)C2CC2)NC(=O)C2CC(Oc3nccc4ccccc34)CN2C1=O (stereo not drawn) [Compound 22] | < 50 | 
12 | COc1ccc2c(OC3CC4C(=O)NC5(C(=O)NS(=O)(=O)C6CC6)CC5C=CCCCCCC(NC(=O)N5CCCC5)C(=O)N4C3)nccc2c1 (stereo not drawn) [Compound 60] | < 50 | 
